Measured values: ChEMBL document CHEMBL4257591 (J Med Chem, 2018)
Active and inactive are the calls of the source. No cut-off for these calls is given here.

Columns and labels:
[1] = tested on: Staphylococcus aureus; experiment: Induction of cytoplasmic membrane depolarization in Staphylococcus aureus KCTC 1621 at 2 times MIC concentration by DiSC3(5)-dye based fluorescence spectrophotometry; format: functional, organism-based
[2] = tested on: Staphylococcus aureus; experiment: Induction of membrane permeabilization in Staphylococcus aureus KCTC 1621 at 2 to 8 times MIC concentration up to 300 secs by SYTOX green uptake assay; format: functional, organism-based
[3] = tested on: Staphylococcus aureus; experiment: Induction of membrane permeabilization in Staphylococcus aureus KCTC 1621 at 2 times MIC concentration up to 300 secs by SYTOX green uptake assay; format: functional, organism-based
[4] = tested on: Escherichia coli; experiment: Induction of membrane permeabilization in Escherichia coli KCTC 1682 assessed as PI-positive cells at 4 uM after 1 to 2 hrs by propidium iodide-staining based flow cytometry (reference value: 2.36%); format: functional
[5] = Hemolytic activity in sheep RBC assessed as free hemoglobin level at 16 uM by ELISA relative to control; format: ADME, cell-based, Ovis aries, Erythrocyte; conditions: sheep red blood cells (erythrocytes), read-out: Activity
[6] = tested on: RAW264.7; experiment: Cytotoxicity against mouse RAW264.7 cells at 32 uM after 48 hrs by MTT assay relative to control; format: cell-based; conditions: raw264.7, 48 h

## CC[C@H](C)[C@H](NC(=O)CN)C(=O)NCC(=O)N[C@@H](C)C(=O)N[C@H](C(=O)N[C@@H](CC(C)C)C(=O)N[C@@H](CCCCN)C(=O)N[C@H](C(=O)N[C@@H](CC(C)C)C(=O)N[C@H](C(=O)N[C@H](C(=O)NCC(=O)N[C@@H](CC(C)C)C(=O)N1CCC[C@H]1C(=O)N[C@@H](C)C(=O)N[C@@H](CC(C)C)C(=O)N[C@H](C(=O)N[C@@H](CO)C(=O)N[C@@H](Cc1c[nH]c2ccccc12)C(=O)N[C@H](C(=O)N[C@@H](CCCCN)C(=O)N[C@@H](CCCNC(=N)N)C(=O)N[C@@H](CCCCN)C(=O)N[C@@H](CCCNC(=N)N)C(=O)N[C@@H](CCC(N)=O)C(=O)N[C@@H](CCC(N)=O)C(N)=O)[C@@H](C)CC)[C@@H](C)CC)[C@@H](C)O)[C@@H](C)O)C(C)C)C(C)C [MELITTIN]
[1]
  Activity: Active
[2]
  Activity: inactive
[3]
  Activity: Active
[4]
  Activity: 55.5%
[5]
  hemolysis at 16 µM: 63%
[6]
  Activity: 100%
